Results reported in patent publication US20240269230A1 (priority 2020, published 2024).
“And” between values parts separate entries of the source, which are not always exact repeats. Equal entries are not always repeated. Bridge positions count the residues as written; N and C are the ends. Ends that are not written are not given here. Peptide text beside a SMILES is read from it.

What was measured:
[1] = mouse, in vivo, ip
kOR [2] = target: T1, kOR (Mus musculus, UniProt P33534); assay: cell-based
kOR [3] = target: T1, kOR; assay: biochemical; type: binding
kOR [4] = target: T1, kOR; type: cell-based
EAE mouse model = settings: mice; oral administration; cited from earlier work
hKOR = hKOR (Homo sapiens, UniProt P41145); settings: cited from earlier work
T-cell proliferation = settings: in vitro; IL-2-dependent mechanism; cited from earlier work

T1 sequence (P33534 whole entry): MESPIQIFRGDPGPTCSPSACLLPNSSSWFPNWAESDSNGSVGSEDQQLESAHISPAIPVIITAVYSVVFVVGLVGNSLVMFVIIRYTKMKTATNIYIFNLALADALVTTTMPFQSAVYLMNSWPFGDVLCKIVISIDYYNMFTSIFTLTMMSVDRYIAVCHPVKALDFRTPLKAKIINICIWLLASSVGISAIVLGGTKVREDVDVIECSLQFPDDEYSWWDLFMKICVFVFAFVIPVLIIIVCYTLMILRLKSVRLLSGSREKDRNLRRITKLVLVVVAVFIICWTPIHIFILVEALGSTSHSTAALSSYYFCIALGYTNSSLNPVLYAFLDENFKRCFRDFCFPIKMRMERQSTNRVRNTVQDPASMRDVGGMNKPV
hKOR, sequence (P41145 whole entry): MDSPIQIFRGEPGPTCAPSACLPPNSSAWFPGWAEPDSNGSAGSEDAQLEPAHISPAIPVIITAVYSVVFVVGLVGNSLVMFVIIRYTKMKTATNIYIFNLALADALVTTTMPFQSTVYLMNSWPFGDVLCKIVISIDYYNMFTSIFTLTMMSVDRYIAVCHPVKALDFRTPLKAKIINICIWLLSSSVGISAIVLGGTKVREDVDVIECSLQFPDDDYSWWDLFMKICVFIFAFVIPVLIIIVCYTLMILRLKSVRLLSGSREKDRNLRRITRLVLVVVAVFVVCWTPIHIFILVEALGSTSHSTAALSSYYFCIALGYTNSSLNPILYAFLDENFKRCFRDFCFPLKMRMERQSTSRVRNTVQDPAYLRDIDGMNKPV

## conjugated [T20K]-kalata B1: [T20K]-kalata B1 conjugated to VivoTag 680 XL Fluorochrome (GLPVCGETCVGGTCNTPGCKCSWPVCTRN; ends and bridges not checked; also: conjugated to VivoTag 680 XL fluorochrome (place not given here); UniProt P56254 89-117, looked up, variant T20K)
[1]
  Biodistribution: brain: accumulated in the brain
  Biodistribution: spine: also in the spine but to a far less extent

## Cc1cc(-c2ccc(/N=N/c3ccc4c(S(=O)(=O)[O-])cc(S(=O)(=O)[O-])c(N)c4c3O)c(C)c2)ccc1/N=N/c1ccc2c(S(=O)(=O)[O-])cc(S(=O)(=O)[O-])c(N)c2c1O.[Na+].[Na+].[Na+].[Na+] [EvansBlue dye, reference compound]
[1]
  Biodistribution: brain: strong signal
  Biodistribution: spine: strong signal

## dynorphin A 1-13 [reference compound]
kOR [2]
  Receptor activation cAMP Emax (%): 113% and 104% and 119% and 134% and 137% and 96%

## CC(C)C[C@@H]1NC(=O)CNC(=O)[C@H](CC(N)=O)NC(=O)[C@H](CCCNC(=N)N)NC(=O)[C@H]([C@@H](C)O)NC(=O)[C@@H]2CSSC[C@@H]3NC(=O)[C@H]([C@@H](C)O)NC(=O)CNC(=O)CNC(=O)[C@H](C(C)C)NC(=O)[C@@H]4CSSC[C@H](NC(=O)[C@H](CCCCN)NC(=O)[C@H](CSSC[C@H](NC(=O)[C@H](C(C)C)NC(=O)[C@@H]5CCCN5C1=O)C(=O)NCC(=O)N[C@@H](CCC(=O)O)C(=O)N[C@@H]([C@@H](C)O)C(=O)N4)NC(=O)CNC(=O)[C@@H]1CCCN1C(=O)[C@H]([C@@H](C)O)NC(=O)[C@H](CC(N)=O)NC3=O)C(=O)N[C@@H](CO)C(=O)N[C@@H](Cc1c[nH]c3ccccc13)C(=O)N1CCC[C@H]1C(=O)N[C@@H](C(C)C)C(=O)N2 [[T20K]-kalata B1] (cyclo(CGETCVGGTCNTPGCKCSWPVCTRNGLPV); disulfide 1-15, 5-17, 10-22 (inferred); ring closure inferred)
kOR [3]
  Effect on the affinity of dynorphin A 1-13: only slightly affects the affinity
  Effect on tritiated diprenorphine binding: negatively modulates tritiated diprenorphine
  Ki: 2.7 µM
kOR [2]
  EC50: 17 µM
  Effect on the efficacy of U50,488 (cAMP): only slightly affected the efficacy
  Effect on the efficacy of dynorphin A 1-13 (cAMP): increase in its efficacy
  Effect on the potency of dynorphin A 1-13 (cAMP): does not affect the potency
  Mode of action at the kOR: full agonist
  Shift in the potency of U50,488 (cAMP): nine-fold leftward shift in the potency
kOR [4]
  Effect on the efficacy of U50,488 to recruit beta arrestin: remarkable alleviation of the efficacy
  Effect on the potency of U50,488 to recruit beta arrestin: not impinging on its potency
  beta arrestin recruitment: no recruitment of beta arrestin could be detected
EAE mouse model
  Symptoms of EAE: significant delay and diminished symptoms of EAE
hKOR
  Binding to and activation of hKOR: bind to and activate hKOR

## kalata B1: circular plant peptide (cyclotide), GLPVCGETCVGGTCNTPGCTCSWPVCTRN (cyclo(GLPVCGETCVGGTCNTPGCTCSWPVCTRN); ends not checked; also: three disulfide bonds (cystine knot), pairing not given here; listed as Oldenlandia affinis)
T-cell proliferation
  T-cell proliferation: silence T-cell proliferation

## vitri cyclotide: novel cyclotide isolated from Viola tricolor, GDPIPCGETCFTGKCYSETIGCTCEWPICTKN (not fully specified (bridges); ends and bridges not checked; also: cyclic, type not given here)
kOR [3]
  Binding of isolated vitri peptide to the kOR: able to bind to the kOR

## CC[C@H](C)[C@@H]1NC(=O)[C@H](C(C)C)NC(=O)[C@H]([C@@H](C)O)NC(=O)[C@H](CO)NC(=O)[C@H](Cc2ccccc2)NC(=O)[C@@H]2CSSC[C@@H]3NC(=O)[C@H](C(C)C)NC(=O)[C@H](CCCCN)NC(=O)[C@H](CC(N)=O)NC(=O)[C@H](CCCCN)NC(=O)[C@@H]4CSSC[C@H](NC(=O)[C@H](CO)NC(=O)[C@H](CCC(=O)O)NC(=O)CNC(=O)[C@H](CSSC[C@H](NC(=O)CNC1=O)C(=O)N[C@@H](CO)C(=O)N4)NC(=O)[C@@H]1CCCN1C(=O)[C@H]([C@@H](C)CC)NC(=O)[C@H](C(C)C)NC(=O)CNC(=O)[C@H](CC(N)=O)NC(=O)[C@H](CCCNC(=N)N)NC(=O)[C@H](Cc1ccc(O)cc1)NC3=O)C(=O)N[C@@H](C(C)C)C(=O)N[C@@H](Cc1ccccc1)C(=O)N[C@@H]([C@@H](C)CC)C(=O)N1CCC[C@H]1C(=O)N2 [caripe 10] (cyclo(CFSTVIGCSCKNKVCYRNGVIPCGESCVFIP); disulfide 1-15, 8-23, 10-27 (inferred); ring closure inferred)
kOR [3]
  Ki: 1 µM
